Read-outs that look alike come from different tables or passages of the source.
What was measured:
Assay in all cases: Glasshouse assay for herbicidal activity (pre- and post-emergence), percentage phytotoxicity
Format in all cases: in vivo
[1] = test system: Alopecurus myosuroides (ALOMY); details: Alopecurus myosuroides
How it was run: (§1)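 Visually rated damage, 0–100%. PRE spray 1 d after sowing, scored 20 DAA; POST spray ~12 d, scored 15 DAA. Glasshouse at 65% humidity, 16 h day.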

[2] = test system: Lolium perenne (LOLPE); details: Lolium perenne
How it was run: as §1

[3] = test system: Avena fatua (AVEFA); details: Avena fatua
How it was run: as §1

[4] = test system: Echinochloa crus-galli (ECHCG); details: Echinochloa crus-galli
How it was run: as §1

[5] = post-emergence, 360 h, 250 g/ha, post-emergence, 15 DAA, visual assessment (100%=total damage, 0%=no damage), read-out: Post-emergence herbicidal activity (percentage phytotoxicity) ALOMY POST
[6] = pre-emergence, 480 h, 250 g/ha, pre-emergence, 20 DAA, visual assessment (100%=total damage, 0%=no damage), read-out: Pre-emergence herbicidal activity (percentage phytotoxicity) ALOMY PRE
[7] = post-emergence, 360 h, 250 g/ha, post-emergence, 15 DAA, visual assessment (100%=total damage, 0%=no damage), read-out: Post-emergence herbicidal activity (percentage phytotoxicity) LOLPE POST
[8] = pre-emergence, 480 h, 250 g/ha, pre-emergence, 20 DAA, visual assessment (100%=total damage, 0%=no damage), read-out: Pre-emergence herbicidal activity (percentage phytotoxicity) LOLPE PRE
[9] = post-emergence, 360 h, 250 g/ha, post-emergence, 15 DAA, visual assessment (100%=total damage, 0%=no damage), read-out: Post-emergence herbicidal activity (percentage phytotoxicity) AVEFA POST
[10] = pre-emergence, 480 h, 250 g/ha, pre-emergence, 20 DAA, visual assessment (100%=total damage, 0%=no damage), read-out: Pre-emergence herbicidal activity (percentage phytotoxicity) AVEFA PRE
[11] = post-emergence, 360 h, 250 g/ha, post-emergence, 15 DAA, visual assessment (100%=total damage, 0%=no damage), read-out: Post-emergence herbicidal activity (percentage phytotoxicity) ECHCG POST
[12] = pre-emergence, 480 h, 250 g/ha, pre-emergence, 20 DAA, visual assessment (100%=total damage, 0%=no damage), read-out: Pre-emergence herbicidal activity (percentage phytotoxicity) ECHCG PRE
[13] = post-emergence, 360 h, Rate 250 g/ha, post-emergence, assessed visually 15 DAA, 100%=total damage, 0%=no damage, read-out: Post-emergence herbicidal activity (percentage phytotoxicity) ALOMY POST
[14] = pre-emergence, 480 h, Rate 250 g/ha, pre-emergence, assessed visually 20 DAA, 100%=total damage, 0%=no damage, read-out: Pre-emergence herbicidal activity (percentage phytotoxicity) ALOMY PRE
[15] = post-emergence, 360 h, Rate 250 g/ha, post-emergence, assessed visually 15 DAA, 100%=total damage, 0%=no damage, read-out: Post-emergence herbicidal activity (percentage phytotoxicity) LOLPE POST
[16] = pre-emergence, 480 h, Rate 250 g/ha, pre-emergence, assessed visually 20 DAA, 100%=total damage, 0%=no damage, read-out: Pre-emergence herbicidal activity (percentage phytotoxicity) LOLPE PRE
[17] = post-emergence, 360 h, Rate 250 g/ha, post-emergence, assessed visually 15 DAA, 100%=total damage, 0%=no damage, read-out: Post-emergence herbicidal activity (percentage phytotoxicity) AVEFA POST
[18] = pre-emergence, 480 h, Rate 250 g/ha, pre-emergence, assessed visually 20 DAA, 100%=total damage, 0%=no damage, read-out: Pre-emergence herbicidal activity (percentage phytotoxicity) AVEFA PRE
[19] = post-emergence, 360 h, Rate 250 g/ha, post-emergence, assessed visually 15 DAA, 100%=total damage, 0%=no damage, read-out: Post-emergence herbicidal activity (percentage phytotoxicity) ECHCG POST
[20] = pre-emergence, 480 h, Rate 250 g/ha, pre-emergence, assessed visually 20 DAA, 100%=total damage, 0%=no damage, read-out: Pre-emergence herbicidal activity (percentage phytotoxicity) ECHCG PRE
[21] = post-emergence, 360 h, POST-emergence, rate 250 g/ha, visual score 15 DAA (100%=total damage, 0%=no damage), read-out: Post-emergence herbicidal activity (percentage phytotoxicity) ALOMY POST
[22] = pre-emergence, 480 h, PRE-emergence, rate 250 g/ha, visual score 20 DAA (100%=total damage, 0%=no damage), read-out: Pre-emergence herbicidal activity (percentage phytotoxicity) ALOMY PRE
[23] = post-emergence, 360 h, POST-emergence, rate 250 g/ha, visual score 15 DAA (100%=total damage, 0%=no damage), read-out: Post-emergence herbicidal activity (percentage phytotoxicity) LOLPE POST
[24] = pre-emergence, 480 h, PRE-emergence, rate 250 g/ha, visual score 20 DAA (100%=total damage, 0%=no damage), read-out: Pre-emergence herbicidal activity (percentage phytotoxicity) LOLPE PRE
[25] = post-emergence, 360 h, POST-emergence, rate 250 g/ha, visual score 15 DAA (100%=total damage, 0%=no damage), read-out: Post-emergence herbicidal activity (percentage phytotoxicity) AVEFA POST
[26] = pre-emergence, 480 h, PRE-emergence, rate 250 g/ha, visual score 20 DAA (100%=total damage, 0%=no damage), read-out: Pre-emergence herbicidal activity (percentage phytotoxicity) AVEFA PRE
[27] = post-emergence, 360 h, POST-emergence, rate 250 g/ha, visual score 15 DAA (100%=total damage, 0%=no damage), read-out: Post-emergence herbicidal activity (percentage phytotoxicity) ECHCG POST
[28] = pre-emergence, 480 h, PRE-emergence, rate 250 g/ha, visual score 20 DAA (100%=total damage, 0%=no damage), read-out: Pre-emergence herbicidal activity (percentage phytotoxicity) ECHCG PRE
[29] = post-emergence, 360 h, Rate 250 g/ha, post-emergence, visual assessment 15 DAA, 100%=total damage, 0%=no damage, read-out: Post-emergence herbicidal activity (percentage phytotoxicity) ALOMY POST
[30] = pre-emergence, 480 h, Rate 250 g/ha, pre-emergence, visual assessment 20 DAA, 100%=total damage, 0%=no damage, read-out: Pre-emergence herbicidal activity (percentage phytotoxicity) ALOMY PRE
[31] = post-emergence, 360 h, Rate 250 g/ha, post-emergence, visual assessment 15 DAA, 100%=total damage, 0%=no damage, read-out: Post-emergence herbicidal activity (percentage phytotoxicity) LOLPE POST
[32] = pre-emergence, 480 h, Rate 250 g/ha, pre-emergence, visual assessment 20 DAA, 100%=total damage, 0%=no damage, read-out: Pre-emergence herbicidal activity (percentage phytotoxicity) LOLPE PRE
[33] = post-emergence, 360 h, Rate 250 g/ha, post-emergence, visual assessment 15 DAA, 100%=total damage, 0%=no damage, read-out: Post-emergence herbicidal activity (percentage phytotoxicity) AVEFA POST
[34] = pre-emergence, 480 h, Rate 250 g/ha, pre-emergence, visual assessment 20 DAA, 100%=total damage, 0%=no damage, read-out: Pre-emergence herbicidal activity (percentage phytotoxicity) AVEFA PRE
[35] = post-emergence, 360 h, Rate 250 g/ha, post-emergence, visual assessment 15 DAA, 100%=total damage, 0%=no damage, read-out: Post-emergence herbicidal activity (percentage phytotoxicity) ECHCG POST
[36] = pre-emergence, 480 h, Rate 250 g/ha, pre-emergence, visual assessment 20 DAA, 100%=total damage, 0%=no damage, read-out: Pre-emergence herbicidal activity (percentage phytotoxicity) ECHCG PRE

SMILES	pest or weed control at 250 g/ha [1, 5] [%]	pest or weed control at 250 g/ha [1, 6] [%]	pest or weed control at 250 g/ha [2, 7] [%]	pest or weed control at 250 g/ha [2, 8] [%]	pest or weed control at 250 g/ha [3, 9] [%]	pest or weed control at 250 g/ha [3, 10] [%]	pest or weed control at 250 g/ha [4, 11] [%]	pest or weed control at 250 g/ha [4, 12] [%]	pest or weed control at 250 g/ha [1, 13] [%]	pest or weed control at 250 g/ha [1, 14] [%]	pest or weed control at 250 g/ha [2, 15] [%]	pest or weed control at 250 g/ha [2, 16] [%]	pest or weed control at 250 g/ha [3, 17] [%]	pest or weed control at 250 g/ha [3, 18] [%]	pest or weed control at 250 g/ha [4, 19] [%]	pest or weed control at 250 g/ha [4, 20] [%]	also measured
C=C(C)CNC(=O)CC1CC(=O)C(c2c(C)cc(OCC(F)(F)F)cc2C)C1=O (stereo not drawn) [Compound B147]	80	90	60	90	90	50	90	100	–	–	–	–	–	–	–	–	–
Cc1cc(C)c(C2C(=O)CC(CC(=O)NCc3ccc(Cl)cc3)C2=O)c(C)c1 (stereo not drawn) [Compound B13]	50	50	90	90	70	40	80	90	–	–	–	–	–	–	–	–	–
Cc1cc(C)c(C2C(=O)CC(CC(=O)NCc3ncc(C)s3)C2=O)c(C)c1 (stereo not drawn) [Compound A105]	–	–	–	–	–	–	–	–	80	80	70	70	0	20	60	70	–
Cc1cc(-n2cc(Cl)cn2)cc(C)c1C1C(=O)CC(CC(=O)N(C)C(C)(C)C)C1=O (stereo not drawn) [Compound B229]	–	–	–	–	–	–	–	–	–	–	–	–	–	–	–	–	pest or weed control at 250 g/ha [1, 21]: 80%; pest or weed control at 250 g/ha [1, 22]: 90%; pest or weed control at 250 g/ha [2, 23]: 70%; pest or weed control at 250 g/ha [2, 24]: 90%; pest or weed control at 250 g/ha [3, 25]: 80%; pest or weed control at 250 g/ha [3, 26]: 90%; pest or weed control at 250 g/ha [4, 27]: 100%; pest or weed control at 250 g/ha [4, 28]: 100%
Cc1cc(C)c(C2C(=O)CC(CC(=O)N3CCOCC3)C2=O)c(C)c1 (stereo not drawn) [Compound A24]	–	–	–	–	–	–	–	–	90	80	100	90	90	90	100	100	–
Cc1cc(C)c(C2C(=O)CC(CC(=O)NC(C)CC3CCCC3)C2=O)c(C)c1 (stereo not drawn) [Compound B28]	50	50	50	80	60	50	70	60	–	–	–	–	–	–	–	–	–
C=Cc1cc(-c2ccc(Cl)cn2)cc(C)c1C1C(=O)CC(CC(=O)NC(C)(C)C)C1=O (stereo not drawn) [Compound B376]	–	–	–	–	–	–	–	–	–	–	–	–	–	–	–	–	pest or weed control at 250 g/ha [1, 29]: 90%; pest or weed control at 250 g/ha [1, 30]: 30%; pest or weed control at 250 g/ha [2, 31]: 100%; pest or weed control at 250 g/ha [2, 32]: 60%; pest or weed control at 250 g/ha [3, 33]: 90%; pest or weed control at 250 g/ha [3, 34]: 80%; pest or weed control at 250 g/ha [4, 35]: 100%; pest or weed control at 250 g/ha [4, 36]: 60%
CC#Cc1cc(C)c(C2C(=O)CC(CC(=O)NCc3cnc(C)cn3)C2=O)c(C)c1 (stereo not drawn) [Compound A144]	–	–	–	–	–	–	–	–	80	80	90	90	100	90	100	100	–
COCCN(CCOC)C(=O)CC1CC(=O)C(c2c(C)cc(-c3ncc(F)cc3F)cc2C)C1=O (stereo not drawn) [Compound B266]	–	–	–	–	–	–	–	–	–	–	–	–	–	–	–	–	pest or weed control at 250 g/ha [1, 21]: 100%; pest or weed control at 250 g/ha [1, 22]: 100%; pest or weed control at 250 g/ha [2, 23]: 80%; pest or weed control at 250 g/ha [2, 24]: 90%; pest or weed control at 250 g/ha [3, 25]: 100%; pest or weed control at 250 g/ha [3, 26]: 40%; pest or weed control at 250 g/ha [4, 27]: 100%; pest or weed control at 250 g/ha [4, 28]: 100%
Cc1cc(-c2ccc(Cl)cn2)cc(C)c1C1C(=O)CC(CC(=O)N(C)C(C)(C)C)C1=O (stereo not drawn) [Compound B368]	–	–	–	–	–	–	–	–	–	–	–	–	–	–	–	–	pest or weed control at 250 g/ha [1, 29]: 90%; pest or weed control at 250 g/ha [1, 30]: 90%; pest or weed control at 250 g/ha [2, 31]: 100%; pest or weed control at 250 g/ha [2, 32]: 100%; pest or weed control at 250 g/ha [3, 33]: 100%; pest or weed control at 250 g/ha [3, 34]: 90%; pest or weed control at 250 g/ha [4, 35]: 100%; pest or weed control at 250 g/ha [4, 36]: 100%
Cc1cc(-c2ccc(C(F)(F)F)cn2)cc(C)c1C1C(=O)CC(CC(=O)NCc2cccc(C(F)(F)F)c2)C1=O (stereo not drawn) [Compound A153]	–	–	–	–	–	–	–	–	90	30	70	60	90	70	90	90	–
C#CC(C)(C)NC(=O)CC1CC(=O)C(c2c(C)cc(-c3ncc(Cl)cc3F)cc2C)C1=O (stereo not drawn) [Compound B126]	100	100	100	100	100	90	100	100	–	–	–	–	–	–	–	–	–
